The target in the experiment is T1, human LPAR1 (Homo sapiens, UniProt Q92633).
T1 construct: host or cells: TangoEDG2-bla U2OS cells
The experiment can be described thus: Arrestin assay (Arrestin Reporter EDG2-bla U2OS), inhibition of LPA-stimulated signal. The note with it: TangoEDG2-bla U2OS cells expressing human LPAR1, 0.25 μM LPA. The class given is cell-based. In short, it runs like this:
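IC50 comes from a variable-slope 4-parameter fit of % inhibition, calculated from the beta-lactamase FRET ratio (emission 460/530 nm, excitation 409 nm, 2 h development at RT). Compounds, 10 μM down to 0.00006 μM in 3-fold steps, were given 1 h before 0.25 μM final LPA for 3 h in TangoEDG2-bla U2OS cells.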

[1] abbreviates: read-out: Arrestin Reporter EDG2-bla U2OS Human Merged IC50.
Where [2] appears, read: read-out: Arrestin Reporter EDG2-bla U2OS Human IC50.

Where two headings read alike, the source gives them in different places.

T1 sequence (Q92633 whole entry): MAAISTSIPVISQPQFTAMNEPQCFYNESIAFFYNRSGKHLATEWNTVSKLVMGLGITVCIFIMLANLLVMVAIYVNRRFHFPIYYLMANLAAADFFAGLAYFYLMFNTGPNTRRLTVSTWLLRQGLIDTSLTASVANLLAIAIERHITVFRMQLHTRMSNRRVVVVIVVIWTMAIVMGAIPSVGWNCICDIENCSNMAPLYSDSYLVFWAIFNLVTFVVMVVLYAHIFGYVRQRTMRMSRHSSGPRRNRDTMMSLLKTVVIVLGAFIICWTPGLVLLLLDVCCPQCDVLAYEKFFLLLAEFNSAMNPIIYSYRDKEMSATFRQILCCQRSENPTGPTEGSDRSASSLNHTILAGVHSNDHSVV

With `CC(C)c1ccnn1C1(C(=O)Nc2ccc(Cl)cc2OC(F)F)CCN(CC2(C(=O)O)CC23CCOCC3)CC1` (stereo not shown) [Compound 73, 2-[[4-[[4-chloro-2-(difluoromethoxy)phenyl]carbamoyl]-4-(5-isopropylpyrazol-1-yl)-1-piperidyl]methyl]-6-oxaspiro[2.5]octane-2-carboxylic acid], the half-maximal inhibitory concentration (IC50) under setting [1] was determined as 37.2 nM. Same read-out and setting: for `CC(C)c1ccnn1C1(C(=O)Nc2ccc(Cl)cc2OC(F)F)CCN(CC2(C(=O)O)CC=CC2)CC1` [Compound 74, 1-[[4-[[4-chloro-2-(difluoromethoxy)phenyl]carbamoyl]-4-(5-isopropylpyrazol-1-yl)-1-piperidyl]methyl]cyclopent-3-ene-1-carboxylic acid] the value was 10.8 nM.

Consider `CC(C)C(=O)N1CCC(CN2CCC(C(=O)Nc3ccc(Cl)cc3OC(F)F)(n3nccc3C(C)C)CC2)(C(=O)O)CC1` [Compound 75, 4-[[4-[[4-chloro-2-(difluoromethoxy)phenyl]carbamoyl]-4-(5-isopropylpyrazol-1-yl)-1-piperidyl]methyl]-1-(2-methylpropanoyl)piperidine-4-carboxylic acid], for which the IC50 under setting [1] was 32.7 nM. Consider `CC(C)c1ccnn1C1(C(=O)Nc2ccc(Cl)cc2OC(F)F)CCN(CC2(C(=O)O)CC2)CC1` [Compound 76, 1-[[4-[[4-chloro-2-(difluoromethoxy)phenyl]carbamoyl]-4-(5-isopropylpyrazol-1-yl)-1-piperidyl]methyl]cyclopropanecarboxylic acid], for which, under setting [1], the IC50 stood at 65.5 nM.

As for `CC(C)c1ccnn1C1(C(=O)Nc2ccc(Cl)cc2OC(F)F)CCN([C@H]2C[C@@](C)(C(=O)O)C2)CC1` [Compound 77, (1s,38)-3-[4-[[4-chloro-2-(difluoromethoxy)phenyl]carbamoyl]-4-(5-isopropylpyrazol-1-yl)-1-piperidyl]-1-methyl-cyclobutanecarboxylic acid], the IC50 under setting [2] turned out to be 43.6 nM. Turning to `CC(C)c1ccnn1C1(C(=O)Nc2ccc(Cl)cc2OC(F)F)CCN(CC2(C(=O)O)CCN(C(=O)C34CC(C)(C3)C4)CC2)CC1` [Compound 79, 4-[[4-[[4-chloro-2-(difluoromethoxy)phenyl]carbamoyl]-4-(5-isopropylpyrazol-1-yl)-1-piperidyl]methyl]-1-(3-metbylbicyclo[1.1.1]pentane-1-carbonyl)piperidine-4-carboxylic acid], under setting [1], the IC50 was 15.7 nM.

For `CC(C)c1ccnn1C1(C(=O)Nc2ccc(Cl)cc2OC(F)F)CCN(CC2(C(=O)O)CCN(C(=O)C34CC(C#N)(C3)C4)CC2)CC1` [Compound 80, 4-[[4-[[4-chloro-2-(difluoromethoxy)phenyl]carbamoyl]-4-(5-isopropylpyrazol-1-yl)-1-piperidyl]methyl]-1-(3-cyanobicyclo[1.1.1]pentane-1-carbonyl)piperidine-4-carboxylic acid], the IC50 under setting [1] is 129 nM. Same read-out and setting: as for `COc1cnn(C2(C(=O)Nc3ccc(Cl)cc3OC(F)F)CCN(CC3(C(=O)O)CCOCC3)CC2)c1C(C)C` [Compound 81, 4-[[4-[[4-chloro-2-(difluoromethoxy)phenyl]carbamoyl]-4-(5-isopropyl-4-methoxy-pyrazol-1-yl)-1-piperidyl]methyl]tetrahydropyran-4-carboxylic acid], the figure is 43 nM; as for `CC(C)CC(=O)N1CCC(CN2CCC(C(=O)Nc3ccc(Cl)cc3OC(F)F)(n3nccc3C(C)C)CC2)(C(=O)O)CC1` [Compound 82, 4-[[4-[[4-chloro-2-(difluoromethoxy)phenyl]carbamoyl]-4-(5-isopropylpyrazol-1-yl)-1-piperidyl]methyl]-1-(3-methylbutanoyl)piperidine-4-carboxylic acid], 21.9 nM. Take `CC(C)c1ccnn1C1(C(=O)Nc2ccc(Cl)cc2OC(F)F)CCN(CC(C)(C)C(=O)O)CC1` [Compound 83, 3-[4-[[4-chloro-2-(difluoromethoxy)phenyl]carbamoyl]-4-(5-isopropylpyrazol-1-yl)-1-piperidyl]-2,2-dimethyl-propanoic acid]: the half-inhibitory concentration (IC50) under setting [1] turned out to be 24.4 nM. In the case of `CC1(C)OCc2cnn(C3(C(=O)Nc4ccc(Cl)cc4OC(F)F)CCN(CC4(C(=O)O)CCOCC4)CC3)c21` [Compound 84, 4-[[4-[[4-chloro-2-(difluoromethoxy)phenyl]carbamoyl]-4-(6,6-dimethyl-4H-furo[3,4-c]pyrazol-1-yl)-1-piperidyl]methyl]tetrahydropyran-4-carboxylic acid], the IC50 under setting [2] was determined as 57.2 nM. Consider `CCOCC1(C(=O)N2CCC(CN3CCC(C(=O)Nc4ccc(Cl)cc4OC(F)F)(n4nccc4C(C)C)CC3)(C(=O)O)CC2)CC1` [Compound 85, 4-[[4-[[4-chloro-2-(difluoromethoxy)phenyl]carbamoyl]-4-(5-isopropylpyrazol-1-yl)-1-piperidyl]methyl]-1-[1-(ethoxymethyl)cyclopropanecarbonyl] piperidine-4-carboxylic acid], for which the IC50 under setting [1] was determined as 53.7 nM. The same measure, in the same setting: as for `CC(C)c1ccnn1C1(C(=O)Nc2ccc(Cl)cc2OC(F)F)CCN(C[C@@H](C)C(=O)O)CC1` [Compound 86, (2R)-3-[4-[[4-chloro-2-(difluoromethoxy)phenyl]carbamoyl]-4-(5-isopropylpyrazol-1-yl)-1-piperidyl]-2-methyl-propanoic acid], the figure is 20.2 nM; as for `CC(C)c1ccnn1C1(C(=O)Nc2ccc(Cl)cc2OC(F)F)CCN(C[C@H](C)C(=O)O)CC1` [Compound 87, (2S)-3-[4-[[4-chloro-2-(difluoromethoxy)phenyl]carbamoyl]-4-(5-isopropylpyrazol-1-yl)-1-piperidyl]-2-methyl-propanoic acid], 32.3 nM. As for `CC(C)OC(=O)N1CCC(CN2CCC(C(=O)Nc3ccc(Cl)cc3OC(F)F)(n3nccc3C(C)C)CC2)(C(=O)O)CC1` [Compound 88], the 50% inhibitory concentration (IC50) under setting [1] turned out to be 13.3 nM. Still for that read-out and setting: for `CC(C)COC(=O)N1CCC(CN2CCC(C(=O)Nc3ccc(Cl)cc3OC(F)F)(n3nccc3C(C)C)CC2)(C(=O)O)CC1` [Compound 89, 4-[[4-[[4-chloro-2-(difluoromethoxy)phenyl]carbamoyl]-4-(5-isopropylpyrazol-1-yl)-1-piperidyl]methyl]-1-isobutoxycarbonyl-piperidine-4-carboxylic acid] the value was 5.93 nM; for `CC(C)c1ccnn1C1(C(=O)Nc2ccc(Cl)cc2OC(F)F)CCN(CC2(C(=O)O)CCN(C(=O)OCC(C)(C)C)CC2)CC1` [Compound 90, 4-[[4-[[4-chloro-2-(difluoromethoxy)phenyl]carbamoyl]-4-(5-isopropylpyrazol-1-yl)-1-piperidyl]methyl]-1-(2,2-dimethylpropoxycarbonyl) piperidine-4-carboxylic acid], 5.54 nM. Same read-out and setting: for `CC1CCc2cnn(C3(C(=O)Nc4ccc(Cl)cc4OC(F)F)CCN(CC4(C(=O)O)CCOCC4)CC3)c21` (stereo not shown) [Compound 91, 4-[[4-[[4-chloro-2-(difluoromethoxy)phenyl]carbamoyl]-4-(6-methyl-5,6-dihydro-4H-cyclopenta[e]pyrazol-1-yl)-1-piperidyl]methy] tetrahydropyran-4-carboxylic acid] the value was 23 nM; for `CC(C)c1ccnn1C1(C(=O)Nc2ccc(Cl)cc2OC(F)F)CCN(CC2(C(=O)O)CCN(C(=O)C[C@H]3CCOC3)CC2)CC1` [Compound 92, 4-[[4-[[4-chloro-2-(difluoromethoxy)phenyl]carbamoyl]-4-(5-isopropylpyrazol-1-yl)-1-piperidyl]methyl]-1-[2-[(3R)-tetrahydrofuran-3-yl]acetyl]piperidine-4-carboxylic acid], 119 nM; for `CC(C)c1ccnn1C1(C(=O)Nc2ccc(Cl)cc2OC(F)F)CCN(CC2(C(=O)O)CCN(C(=O)C[C@@H]3CCOC3)CC2)CC1` [Compound 93, 4-[[4-[[4-chloro-2-(difluoromethoxy)phenyl]carbamoyl]-4-(5-isopropylpyrazol-1-yl)-1-piperidyl]methyl]-1-[2-[(3S)-tetrahydrofuran-3-yl]acetyl]piperidine-4-carboxylic acid], 539 nM.

With `CC(C)c1ccnn1C1(C(=O)Nc2ccc(Cl)cc2OC(F)F)CCN([C@H]2C[C@@H](CC(=O)O)C2)CC1` [Compound 94, (1s,3s)-2-[3-[4-[[4-chloro-2-(difluoromethoxy)phenyl]carbamoyl]-4-(5-isopropylpyrazol-1-yl)-1-piperidyl]cyclobutyl] acetic acid], the concentration for half-maximal inhibition (IC50) under setting [1] was determined as 40.8 nM. Same read-out and setting: for `CC(C)c1ccnn1C1(C(=O)Nc2ccc(Cl)cc2OC(F)F)CCN(C(=N)[C@@H]2C[C@@H]2C(=O)O)CC1` [Compound 96, (1S,2R)-2-[4-[[4-chloro-2-(difluoromethoxy)phenyl]carbamoyl]-4-(5-isopropylpyrazol-1-yl)piperidine-1-carboximidoyl] cyclopropanecarboxylic acid] the value was 23.4 nM; for `CCOC(=O)N1CC(CN2CCC(C(=O)Nc3ccc(Cl)cc3OC(F)F)(n3nccc3C(C)C)CC2)(C(=O)O)C1` [Compound 97, 3-[[4-[[4-chloro-2-(difluoromethoxy)phenyl]carbamoyl]-4-(5-isopropylpyrazol-1-yl)-1-piperidyl]methyl]-1-ethoxycarbonyl-azetidine-3-carboxylic acid], 122 nM.

As for `CCC(=O)N1CCC(CN2CCC(C(=O)Nc3ccc(Cl)cc3OC(F)F)(n3ncc(OC)c3C(C)C)CC2)(C(=O)O)CC1` [Compound 98, 4-[[4-[[4-chloro-2-(difluoromethoxy)phenyl]carbamoyl]-4-(5-isopropyl-4-methoxy-pyrazol-1-yl)-1-piperidyl]methyl]-1-propanoyl-piperidine-4-carboxylic acid], under setting [1], the IC50 is 121 nM. Take `CCOC(=O)N1CCC(CN2CCC(C(=O)Nc3ccc(Cl)cc3OC(F)F)(n3ncc(OC)c3C(C)C)CC2)(C(=O)O)CC1` [Compound 99, 4-[[4-[[4-chloro-2-(difluoromethoxy)phenyl]carbamoyl]-4-(5-isopropyl-4-methoxy-pyrazol-1-yl)-1-piperidyl]methyl]-1-ethoxycarbonyl-piperidine-4-carboxylic acid]: under setting [1], the 50% inhibitory concentration (IC50) was determined as 32.1 nM.

As a reminder, the IC50 is the midpoint of a concentration-inhibition curve.

For the origin of these results see patent US20260102383A1, “LPAR1 Inhibitors” (AbbVie Inc., priority 2024, published 2026).
